Where “and” joins values, the source holds several entries; their conditions need not be identical. Equal values may be shown once.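 A five-concentration, 48-hour dose response in 96-well plates underlies each endpoint, interpolated linearly between surrounding concentrations. Abbreviation: GI50, concentration required for 50% inhibition of growth.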 Calls of active or inactive are those of the source. No stated cut-off is given here; in the data, active = GI50 up to about 1.1 µM and inactive = higher.
Tests used:
Test in all cases: NCI anticancer screen, dose series, 48 h
[1] = system: A498
[2] = system: ACHN
[3] = system: BT-549
[4] = system: CAKI-1
[5] = system: CCRF-CEM
[6] = system: COLO 205
[7] = system: DU-145
[8] = system: EKVX
[9] = system: HCC 2998
[10] = system: HCT-116
[11] = system: HCT-15
[12] = system: HL-60
[13] = system: HOP-62
[14] = system: HT-29
[15] = system: Hs-578T
[16] = system: IGROV-1
[17] = system: K562
[18] = system: KM12
[19] = system: M14
[20] = system: MCF7
[21] = system: MDA-MB-231
[22] = system: MDA-N
[23] = system: MOLT-4
[24] = system: Malme-3M
[25] = system: NCI-H226
[26] = system: NCI-H23
[27] = system: NCI-H460
[28] = system: NCI-H522
[29] = system: NCI/ADR-RES
[30] = system: OVCAR-3
[31] = system: OVCAR-4
[32] = system: OVCAR-5
[33] = system: OVCAR-8
[34] = system: PC-3
[35] = system: SF-268
[36] = system: SF-295
[37] = system: SK-MEL-28
[38] = system: SK-MEL-2
[39] = system: SK-MEL-5
[40] = system: SK-OV-3
[41] = system: SN12C
[42] = system: SNB-19
[43] = system: SNB-75
[44] = system: SR
[45] = system: SW-620
[46] = system: T47D
[47] = system: TK-10
[48] = system: U-251
[49] = system: UACC-257
[50] = system: UACC-62
[51] = system: UO-31
[52] = system: 786-0
[53] = system: A549
[54] = system: LOX IMVI
[55] = system: MDA-MB-435
[56] = system: RXF 393

SMILES: CCOC(=O)/C(Cl)=C(\C)Nc1nc2c(ccc3ccccc32)s1
- GI50 [1]: > 100 µM (inactive)
- GI50 [2]: > 100 µM (inactive)
- GI50 [3]: 61.7 µM (inactive)
- GI50 [4]: 87.9 µM (inactive)
- GI50 [5]: 7.87 µM (inactive)
- GI50 [6]: 47.9 µM (inactive)
- GI50 [7]: 20.6 µM (inactive)
- GI50 [8]: 32.6 µM (inactive)
- GI50 [9]: 16.4 µM (inactive)
- GI50 [10]: 25.5 µM (inactive)
- GI50 [11]: 26.1 µM
- GI50 [12]: 38.1 µM (inactive)
- GI50 [13]: 37.9 µM (inactive)
- GI50 [14]: 45.3 µM (inactive)
- GI50 [15]: 35 µM (inactive)
- GI50 [16]: > 100 µM (inactive)
- GI50 [17]: 17.5 µM (inactive)
- GI50 [18]: 30.6 µM (inactive)
- GI50 [19]: 33.2 µM (inactive)
- GI50 [20]: 24.5 µM (inactive)
- GI50 [21]: 60.5 µM (inactive)
- GI50 [22]: 26.3 µM (inactive)
- GI50 [23]: 7.28 µM (inactive)
- GI50 [24]: 15.6 µM (inactive)
- GI50 [25]: 24.5 µM (inactive)
- GI50 [26]: 31.3 µM (inactive)
- GI50 [27]: 22.5 µM (inactive)
- GI50 [28]: 9.35 µM (inactive)
- GI50 [29]: > 100 µM (inactive)
- GI50 [30]: 46.8 µM (inactive)
- GI50 [31]: 87.7 µM (inactive)
- GI50 [32]: 81.1 µM (inactive)
- GI50 [33]: 60.3 µM (inactive)
- GI50 [34]: 22.5 µM (inactive)
- GI50 [35]: 90.2 µM (inactive)
- GI50 [36]: > 100 µM (inactive)
- GI50 [37]: > 100 µM (inactive)
- GI50 [38]: 26.6 µM (inactive)
- GI50 [39]: 31.2 µM (inactive)
- GI50 [40]: > 100 µM (inactive)
- GI50 [41]: 47.6 µM (inactive)
- GI50 [42]: > 100 µM (inactive)
- GI50 [43]: 14.6 µM (inactive)
- GI50 [44]: 19.5 µM (inactive)
- GI50 [45]: 36.4 µM (inactive)
- GI50 [46]: 13.6 µM (inactive)
- GI50 [47]: > 100 µM (inactive)
- GI50 [48]: > 100 µM (inactive)
- GI50 [49]: 91.8 µM (inactive)
- GI50 [50]: 41.9 µM (inactive)
- GI50 [51]: > 100 µM (inactive)

SMILES: COc1ccc(-c2c(C(C)=O)c(-c3ccccc3)n(C3OC(COC(C)=O)C(OC(C)=O)C(OC(C)=O)C3OC(C)=O)c(=S)c2C#N)cc1O (centres undefined)
- GI50 [52]: 36.5 µM (inactive) and 36.9 µM (inactive)
- GI50 [1]: > 100 µM (inactive)
- GI50 [53]: 68.5 µM (inactive) and 44.9 µM (inactive)
- GI50 [2]: 40.8 µM (inactive) and 32.9 µM (inactive)
- GI50 [3]: 33.7 µM (inactive)
- GI50 [4]: 62.8 µM (inactive) and 49.7 µM (inactive)
- GI50 [7]: 37.8 µM (inactive) and 26.9 µM (inactive)
- GI50 [8]: 25.9 µM (inactive) and 34.6 µM (inactive)
- GI50 [9]: 24.1 µM (inactive) and 18.2 µM (inactive)
- GI50 [10]: 21.8 µM (inactive) and 36.2 µM (inactive)
- GI50 [11]: 42.3 µM and 28 µM
- GI50 [12]: 7.1 µM (inactive)
- GI50 [14]: 36.9 µM (inactive)
- GI50 [15]: 47.6 µM (inactive) and 70.5 µM (inactive)
- GI50 [17]: 47.9 µM (inactive) and 49.4 µM (inactive)
- GI50 [18]: 33.7 µM (inactive) and 19.1 µM (inactive)
- GI50 [54]: 34.6 µM (inactive) and 23.2 µM (inactive)
- GI50 [20]: 28.6 µM (inactive) and 36.1 µM (inactive)
- GI50 [55]: 39.1 µM (inactive) and 32 µM (inactive)
- GI50 [22]: 27.5 µM (inactive) and 33.5 µM (inactive)
- GI50 [24]: 18.5 µM (inactive) and 16.4 µM (inactive)
- GI50 [26]: 35.4 µM (inactive) and 26 µM (inactive)
- GI50 [28]: 17.6 µM (inactive) and 10.1 µM (inactive)
- GI50 [29]: 38.3 µM (inactive)
- GI50 [30]: 29.4 µM (inactive) and 16.8 µM (inactive)
- GI50 [31]: 31.8 µM (inactive) and 24.7 µM (inactive)
- GI50 [32]: > 100 µM (inactive) and 66.7 µM (inactive)
- GI50 [34]: 26.4 µM (inactive) and 41.4 µM (inactive)
- GI50 [56]: 40.6 µM (inactive) and 42.1 µM (inactive)
- GI50 [36]: 64.4 µM (inactive) and 36.4 µM (inactive)
- GI50 [39]: 33.4 µM (inactive) and 30.1 µM (inactive)
- GI50 [41]: > 100 µM (inactive) and 52.1 µM (inactive)
- GI50 [42]: 71.4 µM (inactive)
- GI50 [45]: 93.8 µM (inactive) and 91.6 µM (inactive)
- GI50 [48]: 91.8 µM (inactive) and 69.5 µM (inactive)
- GI50 [49]: 55.8 µM (inactive) and 34.9 µM (inactive)
- GI50 [50]: 38.7 µM (inactive) and 19.9 µM (inactive)
- GI50 [51]: 56.9 µM (inactive) and 36.4 µM (inactive)
